Target: S. pneumoniae Topoisomerase IV ATPase (ParE) (Streptococcus pneumoniae serotype 4, UniProt Q59961)
Assay: S. pneumoniae Topoisomerase IV ATPase inhibition
Format: biochemical
Details: values marked * are an average of two or more data points, read-out: % Inh (13 μM) of S. pneumoniae Topoisomerase IV ATPase
In short: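 ParE ATPase (1.25 nM) run with 160 μM ATP and 5 μg/ml sheared salmon sperm DNA in Tris pH 8.0, Mg2+, glycerol, DTT, Brij-35. Phosphate released read by malachite green/molybdate absorbance at 650 nm. IC50 from 10 compound concentrations; DMSO (2%) as 0% and EDTA (20 μM) as 100% inhibition.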

S. pneumoniae Topoisomerase IV ATPase (ParE), sequence (Q59961 whole entry): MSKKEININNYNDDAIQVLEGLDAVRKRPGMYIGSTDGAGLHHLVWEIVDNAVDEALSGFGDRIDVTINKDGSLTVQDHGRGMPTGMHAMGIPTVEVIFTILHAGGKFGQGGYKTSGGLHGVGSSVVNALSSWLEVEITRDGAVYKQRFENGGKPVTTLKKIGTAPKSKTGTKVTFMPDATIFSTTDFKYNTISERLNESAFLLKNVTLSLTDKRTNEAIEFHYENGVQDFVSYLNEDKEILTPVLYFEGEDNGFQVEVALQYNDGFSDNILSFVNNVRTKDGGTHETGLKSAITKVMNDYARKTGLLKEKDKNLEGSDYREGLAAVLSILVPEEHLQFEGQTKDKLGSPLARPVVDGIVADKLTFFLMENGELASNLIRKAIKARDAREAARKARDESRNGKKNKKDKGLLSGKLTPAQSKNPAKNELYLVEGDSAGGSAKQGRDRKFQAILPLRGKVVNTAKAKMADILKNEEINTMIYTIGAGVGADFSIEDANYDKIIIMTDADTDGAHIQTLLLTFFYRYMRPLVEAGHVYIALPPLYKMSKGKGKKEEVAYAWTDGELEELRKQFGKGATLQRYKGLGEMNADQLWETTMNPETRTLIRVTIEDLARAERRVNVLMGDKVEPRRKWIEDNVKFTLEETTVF

| Compound | inhibition at 13 µM |
| --- | --- |
| O=C(O)c1cncc(-c2cnc(Nc3ccc(F)c(Cl)c3)nc2-n2cc(-c3ccncc3)cn2)c1 [Example 308, 5-{2-[(3-chloro-4-fluorophenyl)amino]-4-[4-(pyridin-4-yl)-1H-pyrazol-1-yl]pyrimidin-5-yl}pyridine-3-carboxylic acid] | 101% |
| O=C(O)c1cncc(-c2cnc(Nc3ccc(F)c(Cl)c3)nc2-n2cc(Cl)cn2)c1 [Example 309, 5-{2-[(3-chloro-4-fluorophenyl)amino]-4-(4-chloro-1H-pyrazol-1-yl)pyrimidin-5-yl}pyridine-3-carboxylic acid] | 69.4% |
| Cc1nccn1-c1nc(Nc2ccc(F)c(Cl)c2)ncc1-c1cncc(C(=O)O)c1 [Example 310, 5-{2-[(3-chloro-4-fluorophenyl)amino]-4-(2-methyl-1H-imidazol-1-yl)pyrimidin-5-yl}pyridine-3-carboxylic acid] | 80% |
| O=C(O)c1cncc(-c2cnc(Nc3ccc(F)c(Cl)c3)nc2-n2cccc2)c1 [Example 311, 5-{2-[(3-chloro-4-fluorophenyl)amino]-4-(1H-pyrrol-1-yl)pyrimidin-5-yl}pyridine-3-carboxylic acid] | 81.8% |
| O=C(O)/C=C/c1cccc(-c2cnc(Nc3ccc(F)c(Cl)c3)nc2-n2cc(-c3ccncc3)cn2)c1 [Example 312, (2E)-3-(3-{2-[(3-chloro-4-fluorophenyl)amino]-4-[4-(pyridin-4-yl)-1H-pyrazol-1-yl]pyrimidin-5-yl}phenyl)prop-2-enoic acid] | 101% |
| O=C(O)/C=C/c1cccc(-c2cnc(Nc3ccc(F)c(Cl)c3)nc2-n2cc(Cl)cn2)c1 [Example 313, (2E)-3-(3-{2-[(3-chloro-4-fluorophenyl)amino]-4-(4-chloro-1H-pyrazol-1-yl)pyrimidin-5-yl}phenyl)prop-2-enoic acid] | 80.3% |
| Cc1nccn1-c1nc(Nc2ccc(F)c(Cl)c2)ncc1-c1cccc(/C=C/C(=O)O)c1 [Example 314, (2E)-3-(3-{2-[(3-chloro-4-fluorophenyl)amino]-4-(2-methyl-1H-imidazol-1-yl)pyrimidin-5-yl}phenyl)prop-2-enoic acid] | 83.4% |
| O=C(O)/C=C/c1cccc(-c2cnc(Nc3ccc(F)c(Cl)c3)nc2-n2cccc2)c1 [Example 315, (2E)-3-(3-{2-[(3-chloro-4-fluorophenyl)amino]-4-(1H-pyrrol-1-yl)pyrimidin-5-yl}phenyl)prop-2-enoic acid] | 62.8% |
| Cc1cc(C)n(-c2nc(Nc3ccc(F)c(Cl)c3)ncc2-c2cncc(C(=O)O)c2)n1 [Example 316, 5-{2-[(3-chloro-4-fluorophenyl)amino]-4-(3,5-dimethyl-1H-pyrazol-1-yl)pyrimidin-5-yl}pyridine-3-carboxylic acid] | 80% |
| O=C(O)c1cncc(-c2cnc(Nc3ccc(F)c(Cl)c3)nc2-n2nccn2)c1 [Example 317, 5-{4-(2H-1,2,3-triazol-2-yl)-2-[(3-chloro-4-fluorophenyl)amino]pyrimidin-5-yl}pyridine-3-carboxylic acid] | 84.9% |
| O=C(O)c1cncc(-c2cnc(Nc3ccc(F)c(Cl)c3)nc2-n2nnc3ccccc32)c1 [Example 318, 5-{4-(1H-benzotriazol-1-yl)-2-[(3-chloro-4-fluorophenyl)amino]pyrimidin-5-yl}pyridine-3-carboxylic acid] | 92.3% |
| Cc1cc(C(F)(F)F)nn1-c1nc(Nc2ccc(F)c(Cl)c2)ncc1-c1cncc(C(=O)O)c1 [Example 319, 5-{2-[(3-chloro-4-fluorophenyl)amino]-4-[5-methyl-3-(trifluoromethyl)-1H-pyrazol-1-yl]pyrimidin-5-yl}pyridine-3-carboxylic acid] | 90.6% |
| O=C(O)c1cncc(-c2cnc(Nc3ccc(F)c(Cl)c3)nc2-n2ccc(C(F)(F)F)n2)c1 [Example 320, 5-{2-[(3-chloro-4-fluorophenyl)amino]-4-[3-(trifluoromethyl)-1H-pyrazol-1-yl]pyrimidin-5-yl}pyridine-3-carboxylic acid] | 101% |
| Cc1cc(C)n(-c2nc(Nc3ccc(F)c(Cl)c3)ncc2-c2cccc(/C=C/C(=O)O)c2)n1 [Example 321, (2E)-3-(3-{2-[(3-chloro-4-fluorophenyl)amino]-4-(3,5-dimethyl-1H-pyrazol-1-yl)pyrimidin-5-yl}phenyl)prop-2-enoic acid] | 83.7% |
| Cc1cc(C(F)(F)F)nn1-c1nc(Nc2ccc(F)c(Cl)c2)ncc1-c1cccc(/C=C/C(=O)O)c1 [Example 322, (2E)-3-(3-{2-[(3-chloro-4-fluorophenyl)amino]-4-[5-methyl-3-(trifluoromethyl)-1H-pyrazol-1-yl]pyrimidin-5-yl}phenyl)prop-2-enoic acid] | 75% |
| O=C(O)/C=C/c1cccc(-c2cnc(Nc3ccc(F)c(Cl)c3)nc2-n2ccc(C(F)(F)F)n2)c1 [Example 323, (2E)-3-(3-{2-[(3-chloro-4-fluorophenyl)amino]-4-[3-(trifluoromethyl)-1H-pyrazol-1-yl]pyrimidin-5-yl}phenyl)prop-2-enoic acid] | 99.5% |

| Compound | inhibition at 13 µM |
| --- | --- |
| O=C(O)/C=C/c1cccc(-c2cnc(Nc3ccc(F)c(Cl)c3)nc2-n2nccn2)c1 [Example 324, (2E)-3-(3-{2-[(3-chloro-4-fluorophenyl)amino]-4-(2H-1,2,3-triazol-2-yl)pyrimidin-5-yl}phenyl)prop-2-enoic acid] | 76.9% |
| O=C(O)/C=C/c1cccc(-c2cnc(Nc3ccc(F)c(Cl)c3)nc2-n2nnc3ccccc32)c1 [Example 325, (2E)-3-(3-{4-(1H-benzotriazol-1-yl)-2-[(3-chloro-4-fluorophenyl)amino]pyrimidin-5-yl}phenyl) prop-2-enoic acid] | 102% |
| O=C(O)c1cncc(-c2cnc(Nc3ccc(F)c(Cl)c3)nc2-n2cnc(Cl)c2Cl)c1 [Example 327, 5-{2-[(3-chloro-4-fluorophenyl)amino]-4-(4,5-dichloro-1H-imidazol-1-yl)pyrimidin-5-yl}pyridine-3-carboxylic acid] | 99% |
| O=C(O)c1cncc(-c2cnc(Nc3ccc(F)c(Cl)c3)nc2-n2cnc(C(F)(F)F)c2)c1 [Example 328, 5-{2-[(3-chloro-4-fluorophenyl)amino]-4-[4-(trifluoromethyl)-1H-imidazol-1-yl]pyrimidin-5-yl}pyridine-3-carboxylic acid] | 70.8% |
| O=C(O)c1cncc(-c2cnc(Nc3ccc(F)c(Cl)c3)nc2-n2ccnn2)c1 [Example 329, 5-{2-[(3-chloro-4-fluorophenyl)amino]-4-(1H-1,2,3-triazol-1-yl)pyrimidin-5-yl}pyridine-3-carboxylic acid] | 116% |
| O=C(O)/C=C/c1cccc(-c2cnc(Nc3ccc(F)c(Cl)c3)nc2-n2cnc(Cl)c2Cl)c1 [Example 331, (2E)-3-(3-{2-[(3-chloro-4-fluorophenyl)amino]-4-(4,5-dichloro-1H-imidazol-1-yl)pyrimidin-5-yl}phenyl)prop-2-enoic acid] | 59.8% |
| O=C(O)/C=C/c1cccc(-c2cnc(Nc3ccc(F)c(Cl)c3)nc2-n2cnc(C(F)(F)F)c2)c1 [Example 332, (2E)-3-(3-{2-[(3-chloro-4-fluorophenyl)amino]-4-[4-(trifluoromethyl)-1H-imidazol-1-yl]pyrimidin-5-yl}phenyl)prop-2-enoic acid] | 62.1% |
| O=C(O)/C=C/c1cccc(-c2cnc(Nc3ccc(F)c(Cl)c3)nc2-n2ccnn2)c1 [Example 333, (2E)-3-(3-{2-[(3-chloro-4-fluorophenyl)amino]-4-(1H-1,2,3-triazol-1-yl)pyrimidin-5-yl}phenyl)prop-2-enoic acid] | 69.8% |
| O=C(O)/C=C/c1cccc(-c2cnc(Nc3ccc(F)c(Cl)c3)nc2-n2nc3cccnc3n2)c1 [Example 334, (2E)-3-(3-{2-[(3-chloro-4-fluorophenyl)amino]-4-(2H-[1,2,3]triazolo[4,5-b]pyridin-2-yl)pyrimidin-5-yl}phenyl)prop-2-enoic acid] | 104% |
| CN(C)CCCNc1nc(Nc2ccc(F)c(F)c2)ncc1-c1ccc(C(=O)O)s1 [Example 335, 5-(2-(3,4-difluorophenylamino)-4-(3-(dimethylamino)propylamino)pyrimidin-5-yl)thiophene-2-carboxylic acid] | 76.5% |
| CN(C)CCCNc1nc(Nc2ccc(F)c(F)c2)ncc1-c1cccc(/C=C/C(=O)O)c1 [Example 336, (E)-3-(3-(2-(3,4-difluorophenylamino)-4-(3-(dimethylamino)propylamino)pyrimidin-5-yl)phenyl)acrylic acid] | 83.7% |
| Cc1ccc(Nc2ncc(-c3ccc(C(=O)O)s3)c(NCCCN(C)C)n2)cc1C#N [Example 337, 5-(2-(3-cyano-4-methylphenylamino)-4-(3-(dimethylamino)propylamino)pyrimidin-5-yl) thiophene-2-carboxylic acid] | 64.4% |
| Cc1ccc(Nc2ncc(-c3cccc(/C=C/C(=O)O)c3)c(NCCCN(C)C)n2)cc1C#N [Example 338, (E)-3-(3-(2-(3-cyano-4-methylphenylamino)-4-(3-(dimethylamino)propylamino)pyrimidin-5-yl)phenyl)acrylic acid] | 58.4% |
| CN(C)CCCNc1nc(Nc2cc(Cl)cc(Cl)c2)ncc1-c1ccc(C(=O)O)s1 [Example 339, 5-(2-(3,5-dichloro-phenylamino)-4-(3-(dimethylamino)propylamino)pyrimidin-5-yl) thiophene-2-carboxylic acid] | 84.3% |
| CN(C)CCCNc1nc(Nc2cc(Cl)cc(Cl)c2)ncc1-c1cccc(/C=C/C(=O)O)c1 [Example 340, (E)-3-(3-(2-(3,5-dichlorophenylamino)-4-(3-(dimethylamino)propylamino)pyrimidin-5-yl)phenyl)acrylic acid] | 83.3% |
